The data set is described as follows: cis/trans 2,2,4,4-tetramethylcyclobutane-1,3-diol solubility ratio (cis isomer solubility limit divided by trans isomer solubility limit). Format: physicochemical. On the procedure:
The definition of cis/trans 2,2,4,4-tetramethylcyclobutane-1,3-diol solubility ratio is also known to one of ordinary skill in the art; in one embodiment, the cis/trans 2,2,4,4-tetramethylcyclobutane-1,3-diol solubility ratio can be defined as the ratio of the cis isomer solubility limit divided by the trans isomer solubility limit at a given temperature for a given solvent or solvents. For example, the cis/trans solubility ratio in water at 80° C. is about 1.0. For MIBC, the cis/trans solubility ratio at 80° C. is about 0.74.

With `CC1(C)C(O)C(C)(C)C1O` (centres unmarked) [2,2,4,4-tetramethylcyclobutane-1,3-diol], the cis/trans solubility ratio entry is, setting by setting: (in MIBC (methyl isobutyl carbinol) at 80° C.) “about 0.74”; (in water at 80° C.) “about 1.0”.

Values taken from patent US9238602B1, “Process for the preparation of cis-2,2,4,4-tetramethylcyclobutane-1,3-diol” (Eastman Chemical Company, priority 2014, dated 2016).
